Measurements: publication PMC6222509, “Dibasic Derivatives of Phenylcarbamic Acid against Mycobacterial Strains: Old Drugs and New Tricks?” (Molecules : A Journal of Synthetic Chemistry and Natural …, 2018)
Values after ≈ are worked out from the molar mass of the structure shown. Read-outs that look alike come from different tables or passages of the source.

What was measured:
[1] = test system: Mycobacterium tuberculosis CNCTC My 331/88 (identical with H37Rv and ATCC 2794; MTv H37Rv); assay: in vitro antimycobacterial MIC, dilution micromethod in Šula's semisynthetic medium; assay type: cell-based; conditions: Mycobacterium tuberculosis
[2] = test system: M. tuberculosis H37Ra ATCC 25177 (MTa H37Ra); assay: in vitro antimycobacterial MIC, 96-well Middlebrook broth, alamarBlue; assay type: cell-based, Mycobacterium tuberculosis; conditions: Mycobacterium tuberculosis, 168 h, 7-day cultivation; read-out: MIC MTa H37Ra 7-d
Experimental: In vitro susceptibitity of given mycobacteria to reference drugs isoniazid (INH), ethambutol (EMB), ofloxacin (OFLX) or ciprofloxacin (CPX) was tested as well (Table 6 and Table 7).
A value of a minimum inhibitory concentration (MIC) was the lowest concentration of a tested compound, (i) which inhibited growth of MTv H37Rv, MK 235/80, MK 6509/96 and MA 330/80, respectively; (ii) at which no visible growth of MTa H37Ra, MS, MK DSM as well as MM was observed.
The molecules 1a–p were also in vitro screened against an avirulent M. tuberculosis H37Ra ATCC 25177 (MTa H37Ra), M. kansasii DSM 44162 (MK DSM), M. smegmatis ATCC 700084 (MS) and M. marinum CAMP 5644 (MM), respectively, in the Department of Infectious Diseases and Microbiology (Faculty of Veterinary Medicine, University of Veterinary and Pharmaceutical Sciences in Brno, Czech Republic).
Determination of a minimum inhibitory concentration (MIC) against MTa H37Ra. The mycobacterium was grown on Middlebrook broth (MB; MiddleBrook Pharmaceuticals, Inc., Westlake, TX, USA), supplemented with Oleic-Albumin-Dextrose-Catalase (OADC) supplement (Difco, Lawrence, KS, USA) and salicylate-derived mycobactin J (2 μg/mL; Allied Monitor Inc., Fayette, MO, USA), an iron-binding siderophore.
At log phase growth, a culture sample (10 mL) was centrifuged at 15,000 rpm/20 min using a bench top centrifuge MPW-65R (MPW Med Instruments, Warsaw, Poland). Following removal of the supernatant, a pellet was washed in fresh liquid Middlebrook 7H9GC broth (MiddleBrook Pharmaceuticals, Inc.) and re-suspended in a fresh OADC-supplemented MB (10 mL).
Turbidity was adjusted to match the McFarland standard No. 1 [87] containing approximately 3 × 10^8 Colony Forming Units (CFU) with MB broth. Further 1:20 dilution of the culture was performed in MB broth.
Susceptibility of MTa H37Ra was investigated in a 96-well plate format. In the experiments, sterile deionized water (300 µL) was added to all outer-perimeter wells of the plates to minimize evaporation of the medium in test wells during incubation. Each evaluated compound (100 µL) was incubated with MTa H37Ra (100 µL). Dilutions of each compound were prepared in triplicate and final concentrations varied from 1000 μg/mL to 8 μg/mL. All tested molecules were dissolved in DMSO (Sigma-Aldrich, Irvine, UK), and subsequent dilutions were made in supplemented MB broth. The plates were sealed with parafilm and incubated at 37 °C for 7 days.
Following incubation, 10% addition a water-soluble dye, the alamarBlue reagent (AbD Serotec, Kidlington, UK) was mixed into each well. This resaurin-based reagent served as an oxidation-reduction indicator of metabolic function and cellular health in cell viability bioassays.
Absorbance readings at 570 nm and 600 nm were taken, initially for background subtraction and after 24h re-incubation. The subtraction is necessary for strongly colored compounds, where the color may interfere with the interpretation of any color change. For non-interfering compounds, a blue color in a well was interpreted as absence of growth and pink color was scored as growth.
The minimum inhibitory concentration (MIC) was defined as the lowest concentration of a compound, at which no visible bacterial growth was observed. In other words, the MIC was the lowest concentration that prevented visual color change from blue to pink.

[3] = test system: M. marinum CAMP 5644 (MM); assay: in vitro antimycobacterial MIC, broth dilution micromethod in Middlebrook 7H9; assay type: cell-based, Mycobacterium marinum
[4] = surface tension, drop count method, Traube stalagmometer; assay type: physicochemical; conditions: aqueous solution c = 2.0 × 10^−3 M, 21 °C; water γ = 0.07259 N/m
Experimental: Surface tension (relative surface activity; γ) of aqueous solutions of the compounds 1a–p (c = 2.0 × 10^−3 M) was determined by a drop count technique using a Traube stalagmometer. All evaluated substances were able to decrease surface tension of water (γ = 0.07259 N/m) at 21 °C.
Surface tension (relative surface activity; γ) of the derivatives 1a–p was determined by a drop count method using a glassy Traube stalagmometer (Kavalier Glass, Prague, Czech Republic). Number of drops of compounds’ and reference solutions were counted between upper and lower marks of the stalagmometer. Aqueous solutions of the molecules 1a–p were prepared with distilled, deionized water (c = 2.0 × 10^−3 M). […] The drops were allowed to form at constant temperature 21 °C. The experimental procedure was described in a paper. Current measurements were done in six replicates and average γ values (in N/m units) were reported (Table 1).

[5] = electronic properties, UV/Vis spectrophotometry of methanolic solutions; assay type: physicochemical; conditions: methanolic solution c = 8.0 × 10^−5 M; for log ε2 (Ch-T): charge-transfer maximum λ2 (Ch-T) = 236–238 nm; for log ε1: λ1 = 208–210 nm; for log ε3: λ3 = 278–280 nm
Text: Electronic properties of the molecules 1a–p (Table 1) were characterized by logarithms of molar absorption coefficients (log ε) of their methanolic solutions (c = 8.0 × 10^−5 M) investigated in the UV/Vis region of an electromagnetic spectrum.
Positions of these absorption bands in the spectrum were typical for derivatives of (substituted) phenylcarbamic acid and the bands were assigned as first local excitation (λ3), charge-transfer (λ2 (Ch-T)) and second local excitation (λ1) absorption maxima, respectively. The λ1 and λ2 (Ch-T) maxima of 2-alkoxy substituted compounds 1a–d and 1i–l were slightly lower compared to those of their 3-alkoxy substituted positional isomers 1e–h and 1m–p (Table 1), respectively.
The UV/Vis spectra of methanolic solutions of analyzed compounds 1a–p (c = 8.0 × 10^−5 M) were observed on the 8452A Diode Array spectrophotometer HP-8452A (Hewlett-Packard, Palo Alto, CA, USA) at 21 °C. Methanol for UV-spectroscopy (Merck, Darmstadt, Germany) was used for preparation of these solutions. Results of the UV/Vis analyses were collected and stored digitally using the ChemStation controller software (Agilent Technologies, Waldbronn, Germany). The HP-8452A apparatus measured a complete range of compounds’ spectrum from 190 nm to 820 nm.
The log ε values for presently observed absorption maxima were calculated following the Lambert-Beer’s law, which was discussed in [35], for example, and expressed by Equation (16):A = ε × c × l(16) where the A parameter represented absorbance of a compound’s solution, the ε descriptor was a molar absorption coefficient (in L/mol/cm units) and l was path length (in cm units).

[6] = 336 h, 14-day cultivation, read-out: MIC MTv H37Rv 14-d
[7] = 504 h, 21-day cultivation, read-out: MIC MTv H37Rv 21-d
[8] = Mycobacterium marinum, 504 h, 21-day cultivation, 28 °C, read-out: MIC MM 21-d
[9] = Mycobacterium marinum, 504 h, read-out: MIC MM 21-d, 21-day cultivation, 28 °C

Compound	MIC [1, 6] [µM]	MIC [1, 7] [µM]	MIC [2] [µM]	MIC [3, 8] [µM]	surface tension γ (relative surface activity) [4] [N/m]	log ε2 (Ch-T) [5]	log ε1 [5]	log ε3 [5]	MIC [3, 9] [µM]	MIC ([3]; 21-day cultivation, 28 °C, read-out: MIC MM 21-d) [µM]
CCCCOc1ccccc1NC(=O)OC(CN(CCC)CCC)CN1CCCC1 (centres unmarked) [1a]	32 (≈ 13.4 µg/mL)	32 (≈ 13.4 µg/mL)	213 (≈ 89.4 µg/mL)	106 (≈ 44.5 µg/mL)	0.06464	4.19	4.51	3.63	–	–
CCCCCOc1ccccc1NC(=O)OC(CN(CCC)CCC)CN1CCCC1 (centres unmarked) [1b]	16 (≈ 6.94 µg/mL)	32 (≈ 13.9 µg/mL)	52 (≈ 22.5 µg/mL)	52 (≈ 22.5 µg/mL)	0.06366	4.05	4.39	3.51	–	–
CCCCCCOc1ccccc1NC(=O)OC(CN(CCC)CCC)CN1CCCC1 (centres unmarked) [1c]	16 (≈ 7.16 µg/mL)	16 (≈ 7.16 µg/mL)	25 (≈ 11.2 µg/mL)	25.5 (≈ 11.4 µg/mL)	0.06222	4.52	4.58	3.49	–	–
CCCCCCCOc1ccccc1NC(=O)OC(CN(CCC)CCC)CN1CCCC1.Cl.Cl (centres unmarked) [1d, 1-[2-[({[2-(heptyl-oxy)phenyl]amino}carbonyl)oxy]-3-(dipropylammonio)propyl]pyrrolidinium dichloride]	8	8	12.5	–	0.05985	4.08	4.43	3.55	12.5	–
CCCCOc1cccc(NC(=O)OC(CN(CCC)CCC)CN2CCCC2)c1 (centres unmarked) [1e]	16 (≈ 6.71 µg/mL)	32 (≈ 13.4 µg/mL)	8.1 (≈ 3.4 µg/mL)	32.5 (≈ 13.6 µg/mL)	0.06316	4.24	4.65	3.59	–	–
CCCCCOc1cccc(NC(=O)OC(CN(CCC)CCC)CN2CCCC2)c1.Cl.Cl (centres unmarked) [1f, 1-[2-[({[3-(pentyloxy)phenyl]amino}carbonyl)oxy]-3-(dipropylammonio)propyl]-pyrrolidinium dichloride]	16	16	< 3.9	–	0.06285	4.27	4.55	3.62	< 3.9	–
CCCCCCOc1cccc(NC(=O)OC(CN(CCC)CCC)CN2CCCC2)c1 (centres unmarked) [1g]	8 (≈ 3.58 µg/mL)	16 (≈ 7.16 µg/mL)	< 3.8	< 3.8	0.06105	4.13	4.54	3.48	–	–
CCCCCCCOc1cccc(NC(=O)OC(CN(CCC)CCC)CN2CCCC2)c1.Cl.Cl (centres unmarked) [1h, 1-[2-[({[3-(heptyloxy)phenyl]amino}carbonyl)oxy]-3-(dipropylammonio)propyl]pyrrolidinium dichloride]	4	8	< 3.7	–	0.05786	4.27	4.66	3.63	< 3.7	<3.7
CCCCOc1ccccc1NC(=O)OC(CN(CCC)CCC)CN1CCCCCC1 (centres unmarked) [1i]	16 (≈ 7.16 µg/mL)	32 (≈ 14.3 µg/mL)	203 (≈ 90.9 µg/mL)	51 (≈ 22.8 µg/mL)	0.06302	4.08	4.44	3.57	–	–
CCCCCOc1ccccc1NC(=O)OC(CN(CCC)CCC)CN1CCCCCC1.O=C(O)C(=O)O (centres unmarked) [1j, 1-[2-[({[2-(Pentyloxy)phenyl]amino}carbonyl)oxy]-3-(dipropylammonio)propyl]-azepanium oxalate]	16	32	199	–	0.06206	4.22	4.54	3.71	50	–
CCCCCCOc1ccccc1NC(=O)OC(CN(CCC)CCC)CN1CCCCCC1 (centres unmarked) [1k]	8 (≈ 3.81 µg/mL)	16 (≈ 7.61 µg/mL)	195 (≈ 92.8 µg/mL)	98 (≈ 46.6 µg/mL)	0.06065	4.10	4.42	3.57	–	–
